# Results published in US9867833B2, “Serine/threonine kinase inhibitors” (GENENTECH, INC., priority 2013, dated 2018).
# Molecular target: human ERK-2 (Mitogen Activated Kinase 1) (Homo sapiens (Human), UniProt P28482)
# Assay: ERK-2 Enzymatic Assay
# Format: biochemical
# Settings: human ERK-2 enzyme 5 nM, 25 μM ATP, S/T17 peptide substrate; isomer = configuration of CR2R3
# Protocol: Compounds were tested in an enzymatic assay using human ERK-2 (Mitogen Activated Kinase 1), recombinantly expressed as an n-terminal 6-His fusion protein in E. coli and corresponding to aa 8-360. […] Test compounds were diluted in DMSO in 3-fold serial dilutions at 100× final concentrations. […] The data collected from each well was fit to a straight line, and the resulting rates were used to calculate percent of control. Percent of control was plotted against compound concentration, and IC50 values were determined using a four-parameter fit.
# Sequence of human ERK-2 (Mitogen Activated Kinase 1) (P28482 8-360): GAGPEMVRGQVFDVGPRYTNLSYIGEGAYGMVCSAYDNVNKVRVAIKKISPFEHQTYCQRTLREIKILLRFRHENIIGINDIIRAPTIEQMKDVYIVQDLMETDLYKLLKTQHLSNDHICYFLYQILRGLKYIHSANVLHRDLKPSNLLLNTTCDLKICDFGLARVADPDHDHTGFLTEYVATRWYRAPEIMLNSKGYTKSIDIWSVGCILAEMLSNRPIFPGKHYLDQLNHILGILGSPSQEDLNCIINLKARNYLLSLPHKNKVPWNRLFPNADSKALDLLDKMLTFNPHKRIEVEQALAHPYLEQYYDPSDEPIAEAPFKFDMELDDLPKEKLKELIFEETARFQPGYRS
row,IC50 [nM],SMILES
1,0.02,"Cn1nccc1Nc1cc(-c2cc3n4c(nnc4c2)[C@@H](Cc2ccccc2)CO3)ccn1 [(R) I-38, 4-(3-benzyl-3,4-dihydro-5-oxa-1,2,2a^1-triazaacenaphthylen-7-yl)-N-(1-methyl-1H-pyrazol-5-yl)pyridin-2-amine]"
2,1.35,"CN1C(=O)C[C@@H](Cc2ccc(Cl)cc2)c2nnc3cc(-c4ccnc(Nc5ccnn5C)c4)cc1n23 [(R) I-40, 9-(4-chlorobenzyl)-6-methyl-4-(2-((1-methyl-1H-pyrazol-5-yl)amino)pyridin-4-yl)-8,9-dihydro-1,2,2a^1,6-tetraazabenzo[cd]azulen-7(6H)-one]"
3,0.079,"Cn1nccc1Nc1nccc(-c2cc3n4c(nnc4c2)[C@@H](Cn2cc(Cl)cn2)CCO3)n1 [(R) I-42, (R)-4-(9-((4-chloro-1H-pyrazol-1-yl)methyl)-8,9-dihydro-7H-6-oxa-1,2,2a^1-triazabenzo[cd]azulen-4-yl)-N-(1-methyl-1H-pyrazol-5-yl)pyrimidin-2-amine]"
4,120,"COc1ncccc1C[C@@H]1CN(C)c2cc(-c3ccnc(Nc4ccnn4C)n3)cc3nnc1n23 [(R) I-43, 4-(3-((2-methoxypyridin-3-yl)methyl)-5-methyl-4,5-dihydro-3H-1,2,2a^1,5-tetraazaacenaphthylen-7-yl)-N-(1-methyl-1H-pyrazol-5-yl)pyrimidin-2-amine]"
5,< 0.02,"Cn1nccc1Nc1nccc(-c2cc3n4c(nnc4c2)[C@@H](Cc2ccc(F)cc2)CO3)n1 [(R) I-44, 4-(3-(4-fluorobenzyl)-3,4-dihydro-5-oxa-1,2,2a^1-triazaacenaphthylen-7-yl)-N-(1-methyl-1H-pyrazol-5-yl)pyrimidin-2-amine]"
6,< 0.02,"CC(C)C[C@H]1COc2cc(-c3ccnc(Nc4ccnn4C)n3)cc3nnc1n23 [(R) I-45, 4-(3-isobutyl-3,4-dihydro-5-oxa-1,2,2a^1-triazaacenaphthylen-7-yl)-N-(1-methyl-1H-pyrazol-5-yl)pyrimidin-2-amine]"
7,< 0.02,"COc1ccc(C[C@H]2COc3cc(-c4ccnc(Nc5ccnn5C)n4)cc4nnc2n34)cc1F [(R) I-46, 4-(3-(3-fluoro-4-methoxybenzyl)-3,4-dihydro-5-oxa-1,2,2a^1-triazaacenaphthylen-7-yl)-N-(1-methyl-1H-pyrazol-5-yl)pyrimidin-2-amine]"
8,< 0.02,"Cn1nccc1Nc1cc(-c2cc3n4c(nnc4c2)[C@@H](Cn2cc(Cl)cn2)CCO3)ccn1 [(R) I-47, 4-(9-((4-chloro-1H-pyrazol-1-yl)methyl)-8,9-dihydro-7H-6-oxa-1,2,2a^1-triazabenzo[cd]azulen-4-yl)-N-(1-methyl-1H-pyrazol-5-yl)pyridin-2-amine]"
9,< 0.02,"Cn1nccc1Nc1cc(-c2cc3n4c(nnc4c2)[C@@H](Cc2ccc(Cl)cc2)CO3)ccn1 [(R) I-48, 4-(3-(4-chlorobenzyl)-3,4-dihydro-5-oxa-1,2,2a^1-triazaacenaphthylen-7-yl)-N-(1-methyl-1H-pyrazol-5-yl)pyridin-2-amine]"
10,0.02,"COc1ccc(C[C@H]2COc3cc(-c4ccnc(Nc5ccnn5C)n4)cc4nnc2n34)cc1 [(R) I-50, 4-(3-(4-methoxybenzyl)-3,4-dihydro-5-oxa-1,2,2a^1-triazaacenaphthylen-7-yl)-N-(1-methyl-1H-pyrazol-5-yl)pyrimidin-2-amine]"
11,0.03,"Cn1nccc1Nc1cc(-c2cc3n4c(nnc4c2)[C@@H](Cc2ccc(F)c(F)c2)CO3)ccn1 [(R) I-54, 4-(3-(3,4-difluorobenzyl)-3,4-dihydro-5-oxa-1,2,2a^1-triazaacenaphthylen-7-yl)-N-(1-methyl-1H-pyrazol-5-yl)pyridin-2-amine]"
12,< 0.02,"Cn1nccc1Nc1nccc(-c2cc3n4c(nnc4c2)[C@@H](Cn2cc(C4CC4)cn2)CCO3)n1 [(R) I-56, 4-(9-((4-cyclopropyl-1H-pyrazol-1-yl)methyl)-8,9-dihydro-7H-6-oxa-1,2,2a^1-triazabenzo[cd]azulen-4-yl)-N-(1-methyl-1H-pyrazol-5-yl)pyrimidin-2-amine]"
13,< 0.02,"Cn1nccc1Nc1nccc(-c2cc3n4c(nnc4c2)[C@H](Cc2ccc(F)cc2)CCO3)n1 [(R) I-58, 4-(9-(4-fluorobenzyl)-8,9-dihydro-7H-6-oxa-1,2,2a^1-triazabenzo[cd]azulen-4-yl)-N-(1-methyl-1H-pyrazol-5-yl)pyrimidin-2-amine]"
14,< 0.02,"COc1ccc(C[C@@H]2CC(=O)N(C)c3cc(-c4ccnc(Nc5ccnn5C)n4)cc4nnc2n34)cc1 [(R) I-62, 9-(4-methoxybenzyl)-6-methyl-4-(2-((1-methyl-1H-pyrazol-5-yl)amino)pyrimidin-4-yl)-8,9-dihydro-1,2,2a^1,6-tetraazabenzo[cd]azulen-7(6H)-one]"
15,183,"CCC[C@@H]1CC(=O)N(C)c2cc(-c3ccnc(Nc4ccnn4C)n3)cc3nnc1n23 [(R) I-64, 6-methyl-4-(2-((1-methyl-1H-pyrazol-5-yl)amino)pyrimidin-4-yl)-9-propyl-8,9-dihydro-1,2,2a^1,6-tetraazabenzo[cd]azulen-7(6H)-one]"
16,0.66,"CN1C(=O)C[C@H](C2CC2)c2nnc3cc(-c4ccnc(Nc5ccnn5C)n4)cc1n23 [(R) I-65, 9-cyclopropyl-6-methyl-4-(2-((1-methyl-1H-pyrazol-5-yl)amino)pyrimidin-4-yl)-8,9-dihydro-1,2,2a^1,6-tetraazabenzo[cd]azulen-7(6H)-one]"
17,2.95,"Cn1nccc1Nc1nccc(-c2cc3n4c(nnc4c2)[C@H](Oc2ccc(F)cc2)CCO3)n1 [(R) I-66, 4-(9-(4-fluorophenoxy)-8,9-dihydro-7H-6-oxa-1,2,2a^1-triazabenzo[cd]azulen-4-yl)-N-(1-methyl-1H-pyrazol-5-yl)pyrimidin-2-amine]"
18,0.655,"CN1C(=O)C[C@H](CC(F)(F)F)c2nnc3cc(-c4ccnc(Nc5ccnn5C)n4)cc1n23 [(R) I-71, 6-methyl-4-(2-((1-methyl-1H-pyrazol-5-yl)amino)pyrimidin-4-yl)-9-(2,2,2-trifluoroethyl)-8,9-dihydro-1,2,2a^1,6-tetraazabenzo[cd]azulen-7(6H)-one]"
19,< 0.02,"COc1ccc(C[C@@H]2CC(=O)N(C)c3cc(-c4ccnc(Nc5ccnn5C)c4)cc4nnc2n34)c(F)c1 [(R) I-74, 9-(2-fluoro-4-methoxybenzyl)-6-methyl-4-(2-((1-methyl-1H-pyrazol-5-yl)amino)pyridin-4-yl)-8,9-dihydro-1,2,2a^1,6-tetraazabenzo[cd]azulen-7(6H)-one]"
20,3.22,"CC(C)C[C@@H]1CC(=O)N(C)c2cc(-c3ccnc(Nc4ccnn4C)c3)cc3nnc1n23 [(R) I-75, 9-isobutyl-6-methyl-4-(2-((1-methyl-1H-pyrazol-5-yl)amino)pyridin-4-yl)-8,9-dihydro-1,2,2a^1,6-tetraazabenzo[cd]azulen-7(6H)-one]"
21,0.311,"Cn1nccc1Nc1nccc(-c2cc3n4c(nnc4c2)[C@H](Oc2cncc(Cl)c2)CCO3)n1 [(R) I-77, 4-(9-((5-chloropyridin-3-yl)oxy)-8,9-dihydro-7H-6-oxa-1,2,2a^1-triazabenzo[cd]azulen-4-yl)-N-(1-methyl-1H-pyrazol-5-yl)pyrimidin-2-amine]"
22,4.61,"Cn1nccc1Nc1cc(-c2cc3n4c(nnc4c2)[C@H](Oc2cncc(Cl)c2)CCO3)ccn1 [(R) I-78, 4-(9-((5-chloropyridin-3-yl)oxy)-8,9-dihydro-7H-6-oxa-1,2,2a^1-triazabenzo[cd]azulen-4-yl)-N-(1-methyl-1H-pyrazol-5-yl)pyridin-2-amine]"
23,0.6,"Cn1nccc1Nc1nccc(-c2cc3n4c(nnc4c2)[C@@H](Cc2ccc(F)c(Cl)c2)CO3)n1 [(R) I-82, 4-(3-(3-chloro-4-fluorobenzyl)-3,4-dihydro-5-oxa-1,2,2a^1-triazaacenaphthylen-7-yl)-N-(1-methyl-1H-pyrazol-5-yl)pyrimidin-2-amine]"
24,0.102,"CN1C(=O)C[C@@H](Cc2ccc(Cl)cn2)c2nnc3cc(-c4ccnc(Nc5ccnn5C)n4)cc1n23 [(R) I-84, 9-((5-chloropyridin-2-yl)methyl)-6-methyl-4-(2-((1-methyl-1H-pyrazol-5-yl)amino)pyrimidin-4-yl)-8,9-dihydro-1,2,2a^1,6-tetraazabenzo[cd]azulen-7(6H)-one]"
25,< 0.02,"COc1ccc(C[C@@H]2CC(=O)N(C)c3cc(-c4ccnc(Nc5ccnn5C)n4)cc4nnc2n34)c(F)c1 [(R) I-85, 9-(2-fluoro-4-methoxybenzyl)-6-methyl-4-(2-((1-methyl-1H-pyrazol-5-yl)amino)pyrimidin-4-yl)-8,9-dihydro-1,2,2a^1,6-tetraazabenzo[cd]azulen-7(6H)-one]"
26,6.94,"CC(C)[C@H]1CC(=O)N(C)c2cc(-c3ccnc(Nc4ccnn4C)c3)cc3nnc1n23 [(R) I-87, 9-isopropyl-6-methyl-4-(2-((1-methyl-1H-pyrazol-5-yl)amino)pyridin-4-yl)-8,9-dihydro-1,2,2a^1,6-tetraazabenzo[cd]azulen-7(6H)-one]"
27,< 0.02,"Cn1nccc1Nc1nccc(-c2cc3n4c(nnc4c2)[C@@H](Cc2cccc(Cl)c2)CO3)n1 [(R) I-88, 4-(3-(3-chlorobenzyl)-3,4-dihydro-5-oxa-1,2,2a^1-triazaacenaphthylen-7-yl)-N-(1-methyl-1H-pyrazol-5-yl)pyrimidin-2-amine]"
28,< 0.02,"Cn1nccc1Nc1cc(-c2cc3n4c(nnc4c2)[C@@H](Cn2cc(C(F)(F)F)cn2)CCO3)ccn1 [(R) I-89, N-(1-methyl-1H-pyrazol-5-yl)-4-(9-((4-(trifluoromethyl)-1H-pyrazol-1-yl)methyl)-8,9-dihydro-7H-6-oxa-1,2,2a^1-triazabenzo[cd]azulen-4-yl)pyridin-2-amine]"
29,0.942,"Cn1nccc1Nc1nccc(-c2cc3n4c(nnc4c2)[C@H](Oc2ccccc2)CCO3)n1 [(R) I-90, N-(1-methyl-1H-pyrazol-5-yl)-4-(9-phenoxy-8,9-dihydro-7H-6-oxa-1,2,2a^1-triazabenzo[cd]azulen-4-yl)pyrimidin-2-amine]"
